Source: patent US11891359B2, “Prenylated psilocybin derivatives and methods of using” (ENVERIC B[…] INC., priority 2021, dated 2024)

Legend:
[1] = target: T1, 5-HT1A receptor (Homo sapiens, UniProt P08908); assay: cAMP-Glo assay in +5-HT1A cells (CHO-K1/5-HT1A/Gα15) with 4 μM forskolin; assay type: cell-based; settings: for cAMP / luminescence response to varying dosage of test molecule: +5HT1A cell cultures, fixed 4 μM forskolin, FIGS. 14H-14L
T1 construct: host or cells: CHO-K1 (co-expressing Gα15)
T1 sequence (P08908 1-422): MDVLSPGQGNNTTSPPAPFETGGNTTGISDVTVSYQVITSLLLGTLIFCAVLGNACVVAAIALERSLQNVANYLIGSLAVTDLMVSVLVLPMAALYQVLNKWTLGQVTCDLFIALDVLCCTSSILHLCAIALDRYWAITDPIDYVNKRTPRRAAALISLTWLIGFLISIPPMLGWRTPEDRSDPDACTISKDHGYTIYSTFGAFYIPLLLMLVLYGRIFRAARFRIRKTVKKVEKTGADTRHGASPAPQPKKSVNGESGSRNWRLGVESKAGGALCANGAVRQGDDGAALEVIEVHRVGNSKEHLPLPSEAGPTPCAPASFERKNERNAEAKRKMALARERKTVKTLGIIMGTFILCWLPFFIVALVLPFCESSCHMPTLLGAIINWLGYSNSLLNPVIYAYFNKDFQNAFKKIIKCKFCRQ
Excerpt: (§1) CHO-K1/Gα15 (GenScript, M00257) (−5-HT1A) and CHO-K1/5-HT1A/Gα15 (GenScript, M00330) (+5-HT1A) cells lines were used. Briefly, CHO-K1/Gα15 is a control cell line that constitutively expresses Gα15 which is a promiscuous Gq protein. This control cell line lacks any transgene encoding 5-HT1A receptors, but still responds to forskolin; thus, cAMP response to forskolin should be the same regardless of whether or not 5-HT1A agonists are present. Conversely, CHO-K1/5-HT1A/Gα15 cells stably express 5-HT1A receptor in the CHO-K1 host background. […] In+5-HT1A cells, Gα15 may be recruited in place of Gαi/o, which could theoretically dampen cAMP response (Rojas and Fiedler 2016, Front Cell Neurosci 10: 272). […] Cells were maintained in complete growth media as recommended by supplier (GenScript) which is constituted as follows: Ham's F12 Nutrient mix (HAM's F12, GIBCO #11765-047) with 10% fetal bovine serum (FBS) (Thermo Scientific #12483020), 200 μg/ml zeocin (Thermo Scientific #R25005) and/or 100 μg/ml hygromycin (Thermo Scientific #10687010). The cells were cultured in a humidified incubator with 37° C. and 5% CO2. Cells maintenance was carried out as recommended by the cell supplier. Briefly, vials with cells were removed from the liquid nitrogen and thawed quickly in 37° C. water bath. Just before the cells were completely thawed the vial's outside was decontaminated by 70% ethanol spray. The cell suspension was then retrieved from the vial and added to warm (37° C.) complete growth media, and centrifuged at 1,000 rpm for 5 minutes. The supernatant was discarded, and the cell pellet was then resuspended in another 10 ml of complete growth media, and added to the 10 cm cell culture dish (Greiner Bio-One #664160). The media was changed every third day until the cells were about 90% confluent. The ˜90% confluent cells were then split 10:1 for maintenance or used for experiment.
As 5-HT1A activation inhibits cAMP formation, the agonist activity of test molecules on 5-HT1A was measured via the reduction in the levels of cAMP produced due to application of 4 μM forskolin. The change in intracellular cAMP levels due to the treatment of novel molecules was measured using cAMP-Glo Assay kit (Promega #V1501). Briefly, +5-HT1A cells were seeded on 1-6 columns and base −5-HT1A cells were seeded on columns 7-12 of the white walled clear bottom 96-well plate (Corning, #3903). Both cells were seeded at the density of 30,000 cells/well in 100 μl complete growth media and cultured 24 hrs in humidified incubator at 37° C. and 5% CO2. On the experiment day, the media of cells was replaced with serum/antibiotic free culture media. […] Reduced ATP caused reduced conversion of luciferin to oxyluciferin, conferring diminished luminescence as the result of 5-HT1A activation. […]

[2] = target: T2, 5-HT2A receptor (Homo sapiens, UniProt P28223); assay: [3H]ketanserin competition binding assay (Scintillation Proximity Assay) on membranes containing 5-HT2A; settings: fixed 1 nM [3H]ketanserin; for competition binding curve result (binding / no binding): psilocin 30 pM to 10 μM, tryptophan 3 nM to 1 mM, FIGS. 14C, 14D
T2 construct: purchased PerkinElmer ES-313-M400UA
Excerpt: Evaluation of drug binding is an essential step to characterization of all drug-target interactions (Fang 2012, Exp Opin Drug Discov 7:969). The binding affinity of a drug to a target is traditionally viewed as an acceptable surrogate of its in vivo efficacy (Núñez et al., 2012, Drug Disc Today 17: 10). Competition assays, also called displacement or modulation binding assays, are a common approach to measure activity of a ligand at a target receptor (Flanagan 2016, Methods Cell Biol 132: 191). In these assays, standard radioligands acting either as agonists or antagonists are ascribed to specific receptors. In the case of G protein-coupled receptor 5-HT2A, [^3H]ketanserin is a well-established antagonist used routinely in competition assays to evaluate competitive activity of novel drug candidates at the 5-HT2A receptor (Maguire et al., 2012, Methods Mol Biol 897: 31). Thus, to evaluate activity of novel psilocybin derivatives at the 5-HT2A receptor, competition assays using [^3H]ketanserin were employed as follows. SPA beads (RPNQ0010), [^3H] ketanserin (NET1233025UC), membranes containing 5-HT2A (ES-313-M400UA), and isoplate-96 microplate (6005040) were all purchased from PerkinElmer. Radioactive binding assays were carried out using Scintillation Proximity Assay (SPA). […] After incubation, the samples were read on a MicroBeta 2 Microplate Counter (Perkin Elmer). […] Equilibrium binding constants for ketanserin (Kd) were determined from saturation binding curves using the ‘one-site saturation binding analysis’ method of GraphPad PRISM software (Version 9.2.0). […] Ki values were calculated from the competition displacement data using the competitive binding analysis from GraphPad PRISM software. […] Specific binding in counts per minute (cpm) was calculated by subtracting non-specific binding from total binding. Specific binding (pmol/mg) was calculated from pmol of [^3H]ketanserin bound per mg of protein in the assay. The Kd was calculated by fitting the data with the one-site binding model of PRISM software (version 9.2.0). […]

[3] = system: CHO-K1/Gα15 (−5-HT1A) cells; assay: cAMP-Glo assay in −5-HT1A control cells (CHO-K1/Gα15) with 4 μM forskolin; assay type: cell-based; settings: for trend of % cAMP levels with decreasing dosage of test molecule: −5HT1A cell cultures, fixed 4 μM forskolin
Excerpt: as §1, with “The supernatant was discarded, and the cell pellet was then resuspended in another 10 ml of complete growth media, and added to the 10 cm cell culture dish (Greiner Bio-One #664160). The media was changed every third day until the cells were about 90% confluent. The ˜90% confluent cells were then split 10:1 for maintenance or used for experiment.” left out
As 5-HT1A activation inhibits cAMP formation, the agonist activity of test molecules on 5-HT1A was measured via the reduction in the levels of cAMP produced due to application of 4 μM forskolin. The change in intracellular cAMP levels due to the treatment of novel molecules was measured using cAMP-Glo Assay kit (Promega #V1501). […] Reduced ATP caused reduced conversion of luciferin to oxyluciferin, conferring diminished luminescence as the result of 5-HT1A activation. […]

T2 sequence (P28223 whole entry): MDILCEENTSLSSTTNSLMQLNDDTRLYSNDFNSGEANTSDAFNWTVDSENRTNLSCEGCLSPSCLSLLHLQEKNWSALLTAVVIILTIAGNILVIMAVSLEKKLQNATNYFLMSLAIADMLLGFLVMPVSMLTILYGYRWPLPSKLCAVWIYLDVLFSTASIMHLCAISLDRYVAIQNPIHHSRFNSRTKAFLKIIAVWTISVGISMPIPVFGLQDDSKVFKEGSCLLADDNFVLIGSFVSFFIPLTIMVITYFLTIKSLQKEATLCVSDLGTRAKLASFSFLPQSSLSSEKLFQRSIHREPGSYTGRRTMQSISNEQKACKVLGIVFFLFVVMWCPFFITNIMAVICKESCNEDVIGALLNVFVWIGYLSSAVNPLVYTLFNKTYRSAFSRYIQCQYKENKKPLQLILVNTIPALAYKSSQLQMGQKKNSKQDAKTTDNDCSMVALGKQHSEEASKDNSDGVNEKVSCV

Row | Compound | cAMP / luminescence response to varying dosage of test molecule [1] | trend of % cAMP levels with decreasing dosage of test molecule [3] | competition binding curve result (binding / no binding) [2] | further results
1 | CN(C)CCc1c[nH]c2ccccc12 [DMT, reference compound] | 5-HT1A activity |  |  | 
2 | CC(=O)NCCc1c[nH]c2cc(CC=C(C)C)ccc12 [compound (IV)] | 5-HT1A modulation activity | not observed |  | specific binding of [3H]ketanserin in competition with test compound ([2]; unlabeled test compound 3 nM to 1 mM, competition not complete, FIGS. 14E, 14F): ~50%; modulation of the impact of serotonin on cAMP / luminescence ([1]; +5-HT1A cell cultures, fixed 4 μM forskolin and 10 uM serotonin, FIGS. 14M, 14N): modulated by the presence of compound (IV) in a concentration-dependent manner; modulation of the impact of serotonin on cAMP / luminescence ([3]; −5-HT1A cell cultures, fixed 4 μM forskolin and 10 uM serotonin, FIGS. 14M, 14N): not notable
3 | CN(C)CCc1c[nH]c2cccc(O)c12 [psilocin] |  |  | binding | 
4 | NCCc1c[nH]c2ccc(O)cc12 [serotonin, reference compound] | 5-HT1A binding activity | not observed |  | 
5 | N[C@@H](Cc1c[nH]c2ccccc12)C(=O)O [tryptophan] |  |  | no binding | 
